BigSolDB 2.1

Row | Structure (SMILES) | solubility (mole fraction) (in acetone, 283.2 K) | solubility (mole fraction) (in acetone, 288.2 K) | solubility (mole fraction) (in acetone, 293.2 K) | solubility (mole fraction) (in acetone, 299.2 K) | solubility (mole fraction) (in acetone, 303.2 K) | solubility (mole fraction) (in acetone, 308.2 K) | solubility (mole fraction) (in chloroform, 283.2 K) | solubility (mole fraction) (in chloroform, 288.2 K) | solubility (mole fraction) (in chloroform, 293.2 K) | solubility (mole fraction) (in chloroform, 299.2 K) | solubility (mole fraction) (in chloroform, 303.2 K) | solubility (mole fraction) (in chloroform, 308.2 K) | solubility (mole fraction) (in ethyl acetate, 283.2 K) | solubility (mole fraction) (in ethyl acetate, 288.2 K) | solubility (mole fraction) (in ethyl acetate, 293.2 K) | solubility (mole fraction) (in ethyl acetate, 299.2 K) | solubility (mole fraction) (in ethyl acetate, 303.2 K) | solubility (mole fraction) (in ethyl acetate, 308.2 K) | solubility (mole fraction) (in methanol, 283.2 K) | solubility (mole fraction) (in methanol, 288.2 K) | further results
1 | COc1cc2oc(=O)cc(-c3ccccc3)c2cc1O | 0.00229 | 0.00237 | 0.00256 | 0.0027 | 0.00326 | 0.0037 | 0.00313 | 0.00361 | 0.00374 | 0.00414 | 0.00457 | 0.0059 | 0.0014 | 0.00153 | 0.00165 | 0.00193 | 0.00204 | 0.00223 | 0.000504 | 0.000516 | solubility (mole fraction) (in methanol, 293.2 K): 0.000542; solubility (mole fraction) (in methanol, 299.2 K): 0.000646; solubility (mole fraction) (in methanol, 303.2 K): 0.000722; solubility (mole fraction) (in methanol, 308.2 K): 0.000835; solubility (mole fraction) (in n-hexane, 283.2 K): 3.88e-06; solubility (mole fraction) (in n-hexane, 288.2 K): 4.03e-06; solubility (mole fraction) (in n-hexane, 293.2 K): 4.09e-06; solubility (mole fraction) (in n-hexane, 299.2 K): 4.48e-06; solubility (mole fraction) (in n-hexane, 303.2 K): 4.76e-06; solubility (mole fraction) (in n-hexane, 308.2 K): 5.36e-06; solubility (mole fraction) (in water, 283.2 K): 1.03e-07; solubility (mole fraction) (in water, 288.2 K): 1.11e-07; solubility (mole fraction) (in water, 293.2 K): 1.12e-07; solubility (mole fraction) (in water, 299.2 K): 1.12e-07; solubility (mole fraction) (in water, 303.2 K): 1.44e-07; solubility (mole fraction) (in water, 308.2 K): 1.64e-07
2 | O=c1cc(-c2ccccc2)c2cc(O)c(O)cc2o1 | 0.0022 | 0.00228 | 0.00237 | 0.00246 | 0.00266 | 0.00299 | 3.75e-08 | 4.16e-08 | 5.93e-08 | 7.09e-08 | 1.04e-07 | 1.71e-07 | 0.000553 | 0.000572 | 0.000616 | 0.000928 | 0.00101 | 0.00139 | 0.000986 | 0.00102 | solubility (mole fraction) (in methanol, 293.2 K): 0.0011; solubility (mole fraction) (in methanol, 299.2 K): 0.00129; solubility (mole fraction) (in methanol, 303.2 K): 0.00147; solubility (mole fraction) (in methanol, 308.2 K): 0.00179; solubility (mole fraction) (in n-hexane, 283.2 K): 2.04e-08; solubility (mole fraction) (in n-hexane, 288.2 K): 4.3e-08; solubility (mole fraction) (in n-hexane, 293.2 K): 5.6e-08; solubility (mole fraction) (in n-hexane, 299.2 K): 7.86e-08; solubility (mole fraction) (in n-hexane, 303.2 K): 8.43e-08; solubility (mole fraction) (in n-hexane, 308.2 K): 1.35e-07; solubility (mole fraction) (in water, 283.2 K): 7.94e-08; solubility (mole fraction) (in water, 288.2 K): 1.39e-07; solubility (mole fraction) (in water, 293.2 K): 1.92e-07; solubility (mole fraction) (in water, 299.2 K): 2.39e-07; solubility (mole fraction) (in water, 303.2 K): 2.51e-07; solubility (mole fraction) (in water, 308.2 K): 3.57e-07
